Test results: PubChem BioAssay AID977606 (Broad Institute, 2014)
Activity calls are given as the source filed them. No rule for the calls is given here.

Tested on: INS-1E Gaussia luciferase insulin secretion, no glucose, luminescence
Assay: insulin secretion activators without glucose, dose response, counter-screen for glucose-dependent insulin secretion activators, cell-based, INS-1E, Gaussia luciferase, luminescence, cherry-pick (AID 977606)

SMILES | AC40
CN(C)CCNc1ncnc2oc(-c3ccccc3)c(-c3ccccc3)c12 | 26.4 µM
CC1(C(=O)NCc2cccc3ccccc23)CCN1Cc1ccc(OC(F)(F)F)cc1 (centres undefined) | 9.49 µM
CC(=O)N(C1CC(C)C(C#N)(C#N)C1(C#N)C#N)N(C)C (centres undefined) | 0.795 µM
CN(C)c1nc(=NCc2cccs2)ss1 | 1.19 µM
CCN(Cc1ccccc1)S(=O)(=O)c1ccc(C(=O)N(CCCN(C)C)c2nc3cc(C)cc(C)c3s2)cc1 | 3.71 µM
O=C(Cn1ncc(Cl)c(Cl)c1=O)Nc1ccc2c(c1)OCO2 | 8.01 µM
COC(=O)C1=C(C)N(Cc2ccc(C(F)(F)F)cc2)C(=NCC2CC2)NC1c1ccccc1 (centres undefined) | 9.63 µM
O=C(c1cccs1)c1coc2ccc(O)c(CN3CCOCC3)c12 | > 35 µM (inactive)
COc1ccccc1CCn1cnc(-c2cccc(F)c2)c1CC(C)C | 8.26 µM
Cc1ccccc1CSCc1ccc(C(=O)NCCCN2CCOCC2)o1 | 26.4 µM
Cc1ccccc1S(=O)(=O)N1CC(=O)N2[C@@H](CO)[C@H](c3ccc(C#CCC4CCCC4)cc3)[C@@H]2C1 | 22.6 µM
CCOc1cccc(-c2csc(C3COc4ccccc4O3)n2)c1 (centres undefined) | 5.47 µM
O=C(N/N=C/c1ccc(O)cc1O)NC12CC3CC(CC(C3)C1)C2 | 13.3 µM
COc1ccc(N2CCN(c3ccc(NC(=O)C4CCCCC4)cc3C#N)CC2)cc1 | 3.22 µM
